# Results reported in patent publication US10946093B2, “Methods of treating cancer using PD-1 axis binding antagonists and MEK inhibitors” (Genentech, Inc., priority 2014, dated 2021).
# System: Vemurafenib-progressing melanoma tumors
# Experiment: Melanoma GEM model B-raf V600E; PTEN fl/fl; TyCreER, Vemurafenib-progressing tumors
# Type: in vivo, mouse
# Details: 2nd line after first line Vemurafenib; GDC-0973 7.5 mg/kg PO qd; anti-PDL1 10 mg/kg IP three times weekly
# Description: A melanoma GEM model B-raf^V600E; PTEN^fl/fl; TyCreER was used.
# Animals were enrolled into the study once their tumors reached a size greater than or equal to 400 mm^3.
# Prior to beginning treatment, each mouse received a biopsy of a melanoma tumor. After the biopsy, mice were allowed to recover for up to one week prior to receiving treatment. Mice were assigned into initial treatment groups (n=20), and treatment commenced at day 0.
# When animals in any group reached ˜2000 mm^3, the tumors were biopsied a second time. After the biopsy procedure, mice recovered for up to one week prior to receiving further therapeutic treatment.
# Mice were weighed and tumors measured at least once a week until study termination. Mice received treatment each day until a mean tumor volume of 2500 mm^3 was achieved. Mice were then euthanized, and melanoma tumors were collected for histology and assessing molecular changes. Mice were perfused under anesthesia at euthanasia.
# Throughout the study, mice were monitored for clinical appearance (body condition, coat appearance, posture, labored breathing, etc.) at least 2 times a week, with increasing frequency, up to daily, depending on severity of adverse clinical signs observed. Moribund animals were euthanized. Mice with a body condition score <2 were euthanized.
compound,measurement,value
"O=C(c1ccc(F)c(F)c1Nc1ccc(I)cc1F)N1CC(O)([C@@H]2CCCCN2)C1 [Cobimetinib, Methanone, [3,4-difluoro-2-[(2-fluoro-4-iodophenyl)amino]phenyl][3-hydroxy-3-(2S)-2-piperidinyl-1-azetidinyl]-]","effect on tumor growth (percent tumor volume change over time, FIG. 1)","initial tumor regression, but this response was not sustained and tumor re-growth was observed"
